Holding throughout (assay type): in vivo, Sprague-Dawley (SD) rats
Assay [1] is described as follows: Body weights of rats in CCl4 liver injury model. The conditions noted are these: CCl4-treated rats, stomach tube, 8th week. As to the method:
The animal model was performed with five-week-old Sprague-Dawley (SD) rats purchased from BioLasco Taiwan Co., Ltd. Healthy rats weighing 220-270 g were chosen for experiment after observing for 2 weeks in the laboratory animal room. The rats were randomly divided into 6 groups (12 rats/group): normal (gp. A); control groups including model control (gp. B) and positive control (gp. C, animals receiving silymarin); treatment groups including animals receiving 300 mg/kg of cyclohexenone (gp. D), 1000 mg/kg of cyclohexenone (gp. E), and 3000 mg/kg of cyclohexenone (gp. F), as indicated in Table 1. Only normal group was not poisoned with CCl4. The body weights were recorded to calculate the dosage. […] It helps to remove toxins from liver cells by either neutralizing the toxicity of toxic compounds or competing with the binding sites in liver. It is a potent antioxidant, protects the liver from free radicals. It has been widely studied for treating various types of liver injury in animals and clinical trials. The beneficial effects on liver protection have made silymarin a good medicine for liver diseases and a drug in positive control group for the animal model of liver injury. Rats in normal group (group A) were fed with corn oil (Sigma chemical co.) by means of stomach tubes. Carbon tetrachloride (Shimakyu, Osaka, Japan) was administered to groups B to F via stomach tubes twice weekly (every Tuesday and Thursday afternoon) for 8 weeks, at a dose of 2 ml/kg of body weight, diluted with corn oil. Silymarin was prepared with saline in an amount of 200 mg/kg of body weight and was fed to rats of group C via a stomach tube. Cyclohexenone prepared from example 1 was mixed with saline, and fed in the amounts of 300 mg/kg, 1000 mg/kg and 3000 mg/kg of body weight to rats of group D to F via stomach tubes. The total feeding volume was estimated in the ratio of 10 ml/kg of body weight to groups C to F five days a week (every morning) for 8 weeks. The body weights of rats and the amounts of food intake in rats for each group were shown in FIG. 1 and FIG. 2, respectively. […]

Assay [2] deals with CCl4-induced liver injury in rats. Briefly: Pathological changes of the liver surface observed with naked eyes. The conditions noted are these: CCl4-treated rats, 8 weeks. As to the method:
The animal model was performed with five-week-old Sprague-Dawley (SD) rats purchased from BioLasco Taiwan Co., Ltd. Healthy rats weighing 220-270 g were chosen for experiment after observing for 2 weeks in the laboratory animal room. The rats were randomly divided into 6 groups (12 rats/group): normal (gp. A); control groups including model control (gp. B) and positive control (gp. C, animals receiving silymarin); treatment groups including animals receiving 300 mg/kg of cyclohexenone (gp. D), 1000 mg/kg of cyclohexenone (gp. E), and 3000 mg/kg of cyclohexenone (gp. F), as indicated in Table 1. Only normal group was not poisoned with CCl4. The body weights were recorded to calculate the dosage. […] It helps to remove toxins from liver cells by either neutralizing the toxicity of toxic compounds or competing with the binding sites in liver. It is a potent antioxidant, protects the liver from free radicals. It has been widely studied for treating various types of liver injury in animals and clinical trials. […]
The pathological changes of the liver surface were examined with naked eyes when the liver was taken out from rats, and then tissue sections were made. […] The pathological changes of liver injury were evaluated under light microscope (Opticphot-2, Nikon, Tokyo, Japan) after stained with the abovementioned solution. […]

Assay [3] has as its system CCl4 induced liver injury in rats. Briefly: Histological evaluation of liver injury (H&E, Jonker et al. 0-4 scale). To be noted: for Liver injury score: 0-4 scale, CCl4-treated rats, 8 weeks; for Liver injury +, counts of pathological rats: level 1 = +, slight; for Liver injury ++, counts of pathological rats: level 2 = ++, mild; for Liver injury +++, counts of pathological rats: level 3 = +++, moderate; for Liver injury ++++, counts of pathological rats: level 4 = ++++, remarkable. As to the method:
The animal model was performed with five-week-old Sprague-Dawley (SD) rats purchased from BioLasco Taiwan Co., Ltd. Healthy rats weighing 220-270 g were chosen for experiment after observing for 2 weeks in the laboratory animal room. The rats were randomly divided into 6 groups (12 rats/group): normal (gp. A); control groups including model control (gp. B) and positive control (gp. C, animals receiving silymarin); treatment groups including animals receiving 300 mg/kg of cyclohexenone (gp. D), 1000 mg/kg of cyclohexenone (gp. E), and 3000 mg/kg of cyclohexenone (gp. F), as indicated in Table 1. Only normal group was not poisoned with CCl4. The body weights were recorded to calculate the dosage. […] It helps to remove toxins from liver cells by either neutralizing the toxicity of toxic compounds or competing with the binding sites in liver. It is a potent antioxidant, protects the liver from free radicals. It has been widely studied for treating various types of liver injury in animals and clinical trials. The beneficial effects on liver protection have made silymarin a good medicine for liver diseases and a drug in positive control group for the animal model of liver injury.
Rats in normal group (group A) were fed with corn oil (Sigma chemical co.) by means of stomach tubes. Carbon tetrachloride (Shimakyu, Osaka, Japan) was administered to groups B to F via stomach tubes twice weekly (every Tuesday and Thursday afternoon) for 8 weeks, at a dose of 2 ml/kg of body weight, diluted with corn oil. Silymarin was prepared with saline in an amount of 200 mg/kg of body weight and was fed to rats of group C via a stomach tube. Cyclohexenone prepared from example 1 was mixed with saline, and fed in the amounts of 300 mg/kg, 1000 mg/kg and 3000 mg/kg of body weight to rats of group D to F via stomach tubes. The total feeding volume was estimated in the ratio of 10 ml/kg of body weight to groups C to F five days a week (every morning) for 8 weeks. The body weights of rats and the amounts of food intake in rats for each group were shown in FIG. 1 and FIG. 2, respectively.
The pathological changes of the liver surface were examined with naked eyes when the liver was taken out from rats, and then tissue sections were made. Half of each liver lobe was stored at −80° C. for antioxidant enzyme assay to follow up. The rest of liver tissues were fixed in 10% formalin for one week, embedded in paraffin cut into 2 μm sections, and stained with Hematoxyline-eosin (H&E) to visualize the lipid deposition, inflammation, cell necrosis and fibrosis, or stained with Masson's trichromic solution to visualize extracellular matrix and collagen fibers for liver fibrosis development. The pathological changes of liver injury were evaluated under light microscope (Opticphot-2, Nikon, Tokyo, Japan) after stained with the abovementioned solution.
Assessment of pathologic score in the chronic liver damage, the extent of inflammation, vacuolar degeneration, liver cell necrosis and bile duct proliferation were graded semi-quantitatively on a “0” to “4” scale (level 0=−, none, level 1=+, slight, level 2=++, mild, level 3=+++, moderate, and level 4=++++, remarkable, according to Jonker et al. (Jonker, A. M., Dijkhuis, F. W., Boes, A., Hardonk, M. J. and Grond J. 1992. Immunohistochemical study of extracellular matrix in acute galactosamine hepatitis in rats. Hepatology. 15(3):423-31).

Marks after values point to notes of the source that are not given here.

Consider `COC1=C(OC)C(O)C(C/C=C(\C)CC/C=C(\C)CCC=C(C)C)C(C)C1=O` (stereo not shown) [Cyclohexenone from Antrodia camphorata, 4-hydroxy-2,3-dimethoxy-6-methyl-5(3,7,11-trimethyl-dodeca-2,6,10-trienyl)-cyclohex-2-enone], for which the body weight in assay [1] (cyclohexenone 300 mg/kg) stood at 386.6 g; in assay [1] (cyclohexenone 1000 mg/kg), 365.1 g; in assay [1] (cyclohexenone 3000 mg/kg) it was 355.0 g. Also, the “swelling and pathological conditions of liver surface (naked eyes)” value in assay [2] (cyclohexenone 3000 mg/kg) is “slightest condition in swelling and pathological conditions”. Moreover, the “extents of liver pathological changes (liver surface, naked eyes)” value in assay [2] (various amounts of cyclohexenone (300, 1000, 3000 mg/kg), vs model group) was “significantly weaker than that of model group”. Further, the Liver injury score in assay [3] (cyclohexenone 300 mg/kg) is 1.8*^a; in assay [3] (cyclohexenone 300 mg/kg, listed as cyclohexenone from Antrodia camphorata), 1.8; in assay [3] (cyclohexenone 1000 mg/kg), 2.0*^a; in assay [3] (cyclohexenone 1000 mg/kg, listed as cyclohexenone from Antrodia camphorata) it was 2.0; in assay [3] (cyclohexenone 3000 mg/kg), 2.3*^a. The “effects in liver injury and liver fibrosis compared with silymarin” value in assay [3] (CCl4 treated rats fed with different amount of cyclohexenone (300, 1000, 3000 mg/kg)) is “better effects than silymarin”. Also, the figures for the “Liver injury +, counts of pathological rats” value in assay [3] (cyclohexenone 300 mg/kg), in assay [3] (cyclohexenone 1000 mg/kg) and in assay [3] (cyclohexenone 3000 mg/kg) were 5, 3 and 2, respectively. Besides, the “Liver injury ++, counts of pathological rats” value in assay [3] (cyclohexenone 300 mg/kg), in assay [3] (cyclohexenone 1000 mg/kg) and in assay [3] (cyclohexenone 3000 mg/kg) was 6 each time. The “Liver injury +++, counts of pathological rats” value in assay [3] (cyclohexenone 1000 mg/kg) and in assay [3] (cyclohexenone 3000 mg/kg) was 1 each time. Moreover, the figures for the “Liver injury ++++, counts of pathological rats” value in assay [3] (cyclohexenone 300 mg/kg), in assay [3] (cyclohexenone 1000 mg/kg) and in assay [3] (cyclohexenone 3000 mg/kg) were 1, 1 and 2, respectively.

(Values after US7456225B1, “Liver protection compounds of the cyclohexenone type from Antrodia camphorata” (Golden Biotechnology Corporation, priority 2007, dated 2008).)
